Results taken from patent publication US9919998B2, “Antibacterial agents: Nα-aroyl-N-aryl-phenylalaninamides” (priority 2014, dated 2018).
pIC50: −log10 of the molar value. In brackets after ≈: the same amount, converted by molar mass.

Experiments:
[1] = system: Vero E6 ATCC CRL1586 cells; experiment: Mammalian-cell cytotoxicity, minimal cytotoxic concentration (CellTiter96); type: cell-based
Procedure: Minimal cytotoxic concentrations (MCCs) against mammalian cells in culture were determined using Vero E6 ATCC CRL1586 cells and the CellTiter96 assay kit (Promega, Inc.). […]

[2] = system: rifampin-resistant mutants, derivatives of M. smegmatis ATCC19420; experiment: MICs in rifampin-resistant mutants (cross-resistance levels); type: cell-based, Mycobacterium smegmatis
From the text: (§1) MICs in Mycobacterium smegmatis ATCC 19420 and Mycobacterium smegmatis ATCC 19420 derivatives were quantified using broth microdilution assays as described [Clinical and Laboratory Standards Institute (CLSI/NCCLS) (2009) Methods for Dilution Antimicrobial Susceptibility Tests for Bacteria That Grow Aerobically; Approved Standard, Eighth Edition. CLIS Document M07-A8 (CLIS, Wayne Pa.)].

[3] = biological target: Escherichia coli RNA polymerase (Escherichia coli, UniProt P0A8T7+P0A8V2); experiment: Analogous run-off transcription assay with Escherichia coli RNA polymerase; type: biochemical; conditions: run-off transcription assays with Escherichia coli RNA polymerase; read-out: IC50 for inhibition of Escherichia coli RNA polymerase
[4] = system: AAP1-resistant mutants, derivatives of M. smegmatis ATCC19420; experiment: MICs in AAP1-resistant mutants (resistance and cross-resistance levels); type: cell-based, Mycobacterium smegmatis; conditions: MICs in AAP1-resistant mutants
[5] = system: Mycobacterium avium ATCC 25291; experiment: Microplate Alamar Blue assay (MABA) MIC, M. avium; type: cell-based; conditions: ATCC25291, M. avium ATCC 25291
From the text: (§2) Minimal inhibitory concentrations (MICs) in Mycobacterium tuberculosis H37Rv and Mycobacterium avium ATCC 25291 were quantified using microplate Alamar Blue assays as described (MABA; [Collins, L. & Franzblau, S. (1997) Microplate Alamar Blue assay versus BACTEC 460 system for high-throughput screening of compounds against Mycobacterium tuberculosis and Mycobacterium avium. Antimicrob. Agents Chemother. 41, 1004-1009]).

[6] = system: Mycobacterium tuberculosis H37Rv; experiment: Microplate Alamar Blue assay (MABA) MIC, M. tuberculosis; type: cell-based; conditions: read-out: MIC Mycobacterium tuberculosis H37Rv
From the text: as §2

[7] = system: Mycobacterium smegmatis ATCC 19420; experiment: Broth microdilution MIC, M. smegmatis; type: cell-based; conditions: Mycolicibacterium smegmatis, ATCC19420, M. smegmatis ATCC 19420; read-out: MIC Mycobacterium smegmatis ATCC 19420
From the text: as §1

[8] = biological target: Mycobacterium tuberculosis RNA polymerase (Mycobacterium tuberculosis, UniProt P9WGY7+P9WGY9); experiment: Run-off transcription assay with Mycobacterium tuberculosis RNA polymerase (radiochemical); type: biochemical; conditions: IC50 Mycobacterium tuberculosis RNA polymerase
Procedure: Run-off transcription assays with Mycobacterium tuberculosis RNA polymerase were performed using reaction mixtures containing (10 μl): 0-100 μM test compound, 75 nM Mycobacterium tuberculosis RNA polymerase core enzyme, 300 nM Mycobacterium tuberculosis σ^A, 20 nM 130 bp DNA fragment containing positions −100 to −1 of the bacteriophage […] N25 promoter followed by positions +1 to +30 of the lacUV5-15 promoter of [Mukhopadhyay, J., Kapanidis, A., Mekler, V., Kortkhonjia, E., Ebright, Y., Ebright, R. (2001) Cell 106, 453-463], 25 nM [alpha-^32P]UTP (600 Bq/pmol) for an initial 2 min at 37° C. and 100 μM [alpha-^32P]UTP (6 Bq/pmol) for a subsequent 5 min at 37° C., 100 μM ATP, 100 μM GTP, 100 μM UTP, 100 μM CTP, 40 mM Tris-HCl, pH 8.0, 80 mM NaCl, 5 mM MgCl2, 2.5 mM DTT, and 12.7% glycerol. Reactions were terminated by addition of […] 80% formamide, 10 mM EDTA, 0.04% bromophenol blue, and 0.04% xylene cyanol, followed by heating for 5 min at 90° C. Reaction products were resolved by 15% urea-PAGE, and quantified using a storage-phosphor scanner.

[9] = physchem

Chain of Escherichia coli RNA polymerase (P0A7Z4 whole entry, the tested form may be a part): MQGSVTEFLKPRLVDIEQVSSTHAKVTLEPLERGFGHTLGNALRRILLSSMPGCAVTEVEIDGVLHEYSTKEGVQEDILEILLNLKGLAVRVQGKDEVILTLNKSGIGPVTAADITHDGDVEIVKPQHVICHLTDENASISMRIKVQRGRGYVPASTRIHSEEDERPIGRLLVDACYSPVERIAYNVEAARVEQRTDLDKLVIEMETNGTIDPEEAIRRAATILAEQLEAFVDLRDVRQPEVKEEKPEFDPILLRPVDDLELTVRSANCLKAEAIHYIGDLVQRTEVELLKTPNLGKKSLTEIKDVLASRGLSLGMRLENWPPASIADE
Chain of Escherichia coli RNA polymerase (P0A8V2 whole entry, the tested form may be a part): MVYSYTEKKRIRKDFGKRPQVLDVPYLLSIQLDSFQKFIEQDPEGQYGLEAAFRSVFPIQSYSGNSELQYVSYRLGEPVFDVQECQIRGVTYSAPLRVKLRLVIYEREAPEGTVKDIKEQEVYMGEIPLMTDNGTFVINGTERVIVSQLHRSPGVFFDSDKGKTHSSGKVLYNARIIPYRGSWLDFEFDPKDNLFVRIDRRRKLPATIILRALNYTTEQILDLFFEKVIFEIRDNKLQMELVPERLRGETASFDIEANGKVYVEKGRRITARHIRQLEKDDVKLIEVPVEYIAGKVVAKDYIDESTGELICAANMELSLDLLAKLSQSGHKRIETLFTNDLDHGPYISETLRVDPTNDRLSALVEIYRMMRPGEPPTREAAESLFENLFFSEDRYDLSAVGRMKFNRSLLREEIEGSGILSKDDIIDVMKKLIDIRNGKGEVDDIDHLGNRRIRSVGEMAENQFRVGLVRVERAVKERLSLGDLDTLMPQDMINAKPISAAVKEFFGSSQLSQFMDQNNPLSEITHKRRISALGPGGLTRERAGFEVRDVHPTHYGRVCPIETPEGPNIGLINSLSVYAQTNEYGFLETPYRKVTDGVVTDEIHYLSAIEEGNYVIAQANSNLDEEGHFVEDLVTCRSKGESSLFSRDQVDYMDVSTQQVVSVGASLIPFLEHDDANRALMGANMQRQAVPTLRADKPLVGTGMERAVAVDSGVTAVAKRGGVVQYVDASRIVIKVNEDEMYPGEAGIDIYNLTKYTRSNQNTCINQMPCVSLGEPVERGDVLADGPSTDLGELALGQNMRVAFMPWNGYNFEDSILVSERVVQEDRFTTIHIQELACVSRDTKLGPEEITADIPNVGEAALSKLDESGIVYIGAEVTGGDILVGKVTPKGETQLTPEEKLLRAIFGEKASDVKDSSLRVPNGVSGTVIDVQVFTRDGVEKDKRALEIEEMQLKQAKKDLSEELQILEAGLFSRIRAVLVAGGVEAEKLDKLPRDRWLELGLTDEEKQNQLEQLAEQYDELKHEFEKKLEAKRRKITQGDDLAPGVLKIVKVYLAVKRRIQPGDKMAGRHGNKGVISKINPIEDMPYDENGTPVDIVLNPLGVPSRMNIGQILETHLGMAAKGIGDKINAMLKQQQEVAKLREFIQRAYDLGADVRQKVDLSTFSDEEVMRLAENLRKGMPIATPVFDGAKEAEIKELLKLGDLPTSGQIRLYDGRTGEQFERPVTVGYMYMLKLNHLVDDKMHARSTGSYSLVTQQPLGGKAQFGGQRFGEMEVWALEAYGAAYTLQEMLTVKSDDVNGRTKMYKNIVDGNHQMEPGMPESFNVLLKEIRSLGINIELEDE
Chain of Escherichia coli RNA polymerase (P0A800 whole entry, further chain, the tested form may be a part): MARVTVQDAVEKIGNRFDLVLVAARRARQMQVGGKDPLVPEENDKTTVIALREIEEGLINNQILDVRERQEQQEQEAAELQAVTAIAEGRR
Chain of Escherichia coli RNA polymerase (P00579 whole entry, further chain, the tested form may be a part): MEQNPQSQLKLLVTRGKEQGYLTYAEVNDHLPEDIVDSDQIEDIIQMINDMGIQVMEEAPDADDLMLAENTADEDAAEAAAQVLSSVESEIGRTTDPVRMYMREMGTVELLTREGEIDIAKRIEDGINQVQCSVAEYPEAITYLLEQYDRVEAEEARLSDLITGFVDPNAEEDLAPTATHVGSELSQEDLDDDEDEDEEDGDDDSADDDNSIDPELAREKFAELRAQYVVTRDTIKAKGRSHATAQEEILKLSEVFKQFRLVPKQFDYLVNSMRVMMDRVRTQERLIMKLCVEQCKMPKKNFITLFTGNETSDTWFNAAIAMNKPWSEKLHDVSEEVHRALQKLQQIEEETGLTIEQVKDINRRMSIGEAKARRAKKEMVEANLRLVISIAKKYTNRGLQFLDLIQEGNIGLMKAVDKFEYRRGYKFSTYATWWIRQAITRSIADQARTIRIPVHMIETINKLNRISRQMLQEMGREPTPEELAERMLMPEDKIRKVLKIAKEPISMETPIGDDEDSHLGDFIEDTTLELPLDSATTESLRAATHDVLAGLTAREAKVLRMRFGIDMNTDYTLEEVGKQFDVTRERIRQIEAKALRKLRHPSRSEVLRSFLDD
Chain of Escherichia coli RNA polymerase (P0A8T7 whole entry, the tested form may be a part): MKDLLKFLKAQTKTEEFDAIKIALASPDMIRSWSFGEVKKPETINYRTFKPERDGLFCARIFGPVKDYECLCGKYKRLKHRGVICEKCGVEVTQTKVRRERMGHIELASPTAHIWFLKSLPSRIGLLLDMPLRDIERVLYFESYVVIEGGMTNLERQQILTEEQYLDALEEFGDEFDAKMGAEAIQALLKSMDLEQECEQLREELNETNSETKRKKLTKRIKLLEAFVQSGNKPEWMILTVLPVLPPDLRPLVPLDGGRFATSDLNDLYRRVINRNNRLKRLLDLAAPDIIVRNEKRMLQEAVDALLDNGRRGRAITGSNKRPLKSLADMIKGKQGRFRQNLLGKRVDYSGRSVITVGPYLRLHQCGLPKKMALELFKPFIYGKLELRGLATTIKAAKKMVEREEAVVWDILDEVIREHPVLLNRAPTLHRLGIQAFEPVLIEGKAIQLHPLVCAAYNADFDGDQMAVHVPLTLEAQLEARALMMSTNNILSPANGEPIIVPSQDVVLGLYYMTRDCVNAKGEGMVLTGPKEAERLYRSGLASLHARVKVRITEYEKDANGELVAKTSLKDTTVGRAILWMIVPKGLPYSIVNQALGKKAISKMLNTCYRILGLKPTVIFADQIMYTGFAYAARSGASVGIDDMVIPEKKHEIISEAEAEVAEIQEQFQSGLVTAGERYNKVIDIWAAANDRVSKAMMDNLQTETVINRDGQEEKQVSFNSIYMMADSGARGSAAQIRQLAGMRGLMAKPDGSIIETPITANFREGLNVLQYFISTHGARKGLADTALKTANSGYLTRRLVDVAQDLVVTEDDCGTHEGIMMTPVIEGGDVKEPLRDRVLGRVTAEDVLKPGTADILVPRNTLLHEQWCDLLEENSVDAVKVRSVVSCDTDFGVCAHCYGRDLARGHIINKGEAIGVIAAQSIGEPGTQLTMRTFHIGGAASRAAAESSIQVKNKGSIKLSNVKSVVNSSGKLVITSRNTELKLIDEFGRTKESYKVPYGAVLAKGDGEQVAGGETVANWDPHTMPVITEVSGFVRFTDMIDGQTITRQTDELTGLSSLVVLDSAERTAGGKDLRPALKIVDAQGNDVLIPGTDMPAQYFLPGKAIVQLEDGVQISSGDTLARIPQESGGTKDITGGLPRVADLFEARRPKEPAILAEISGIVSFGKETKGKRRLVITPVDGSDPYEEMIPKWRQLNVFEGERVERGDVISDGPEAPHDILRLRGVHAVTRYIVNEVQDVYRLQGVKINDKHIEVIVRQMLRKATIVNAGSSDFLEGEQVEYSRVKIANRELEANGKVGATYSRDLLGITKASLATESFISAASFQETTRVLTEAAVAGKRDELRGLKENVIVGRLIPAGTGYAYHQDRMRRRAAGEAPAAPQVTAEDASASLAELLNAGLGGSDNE

O=C(NC(Cc1ccccc1)C(=O)Nc1cccc2[nH]ncc12)c1ccccc1 (stereo not drawn) [IX-37, N-(1-((1H-indazol-4-yl)amino)-1-oxo-3-phenylpropan-2-yl)benzamide]
MCC mammalian cells Vero E6 ATCC CRL1586 [1]: 55 µg/mL | cross-resistance of rifampin-resistant mutants to the compound [2]: No rifampin-resistant mutant was found to exhibit cross-resistance | pIC50 [3]: 5.00 | cross-resistance of AAP1-resistant mutants to the compound [4]: cross-resistance | MIC [5]: 12.5 µg/mL (≈ 32.5 µM) | MIC [6]: 12.5 µg/mL (≈ 32.5 µM) | MIC [7]: 0.195 µg/mL (≈ 0.507 µM) | pIC50 [8]: 5.48 | solubility [9]: > 10 µM
